Consider six compounds from PMC6930503, “Antiviral, Antimicrobial and Antibiofilm Activity of Selenoesters and Selenoanhydrides” (Molecules, 2019).

Data set [1] deals with Candida albicans ATCC 10231. Conditions: reference, range calculated from data in bibliography; cited from earlier work.
For data set [2], the system named is Candida krusei ATCC 14243. Conditions: reference, range calculated from data in bibliography; cited from earlier work.
The subject of data set [3] is Candida parapsilosis ATCC 22019. The following applies: reference, range calculated from data in bibliography; cited from earlier work.
Data set [4] concerns S. aureus ATCC 25923. Nature of the data set: Biofilm formation assay with crystal violet. In kind it is cell-based. Conditions: Staphylococcus aureus, ATCC25923, 48 h; for inhibition at 50 µM: compound at 50 μM. On the procedure: The biofilm-forming ability of S. Typhimurium and S. aureus ATCC strains was studied in 96-well microtiter plates, using Luria-Bertani (LB) broth without salt (S. Typhimurium) or tryptic soy broth TSB (S. aureus) in the presence of selenocompounds. Initially, overnight cultures were diluted to an optical density (OD) of 0.1 at 600 nm and then added to each well, with the exception of the medium control wells and compounds were added individually at ½ MIC. The final volume was 200 μL in each well. Plates were incubated at 30 °C, for 48 h, with gentle agitation (100 rpm). After the incubation period, the medium was discarded, and the plate was washed with tap water, to remove unattached cells. Then, 200 μL of crystal violet (CV; 0.1% [v/v]) was added to the wells and incubated for 15 min at room temperature. CV was removed from the wells, and the plate was washed again with tap water. Then, 200 μL of 70% ethanol was added to each well, and the biofilm formation was determined by measuring the OD at 600 nm, using a FLUOstar Optima plate reader (BMG Labtech, Aylesbury, UK). The antibiofilm effect of selenocompounds was expressed in the percentage (%) decrease in biofilm formation. The assay was repeated a minimum of three times. The results were analyzed by using the t-test and p-values of <0.05 were considered significant.

The subject of data set [5] is S. aureus ATCC 25923. Nature of the data set: Antibiofilm effect in combination with ciprofloxacin. In kind it is cell-based, Staphylococcus aureus. The following applies: CIP at 1.6 µM, compound at ½ MIC. On the procedure:
(§1) […]; 4, 5, 7, 8 and 9 for S. Typhimurium).
(§2) […]. The effect was determined by two-fold broth microdilution method in 96-well plates, using serial dilutions of TET and CIP. The first four rows contained two-fold dilutions of antibiotics, and combinations of the antibiotics and tested compounds were added into the last four rows. The overnight bacterial cultures were diluted to an OD of 0.1 at 600 nm and then added to each well, in 50 μL LB, without salt or TSB, with the exception of the medium control wells. The plates were then incubated at 30 °C, for 48 h, with gentle agitation (100 rpm), and the biofilm formation was determined by measuring the OD at 600 nm, using a FLUOstar Optima plate reader. The antibiofilm effect of antibiotic alone and in combination with selenocompounds was expressed in the percentage (%) of decrease in biofilm formation. The results were analyzed by using the t-test and p-values of <0.05 were considered significant.

The subject of data set [6] is S. enterica serovar Typhimurium 14028s. Nature of the data set: Antibiofilm effect in combination with tetracycline. Type of data set: cell-based, Salmonella enterica serovar Typhimurium. The following applies: compound at ½ MIC; for effect on the antibiofilm activity of TET compared to TET alone: 2.5 µM of TET. On the procedure: as §1, §2
Data set [7] is described as follows: MTT cytotoxicity assay on Vero cells. The following applies: African green monkey. (In general: Formazan colour is commonly taken as a measure of viable cells.)
In a further data set the test system is HSV-2. Nature of the data set: Anti-HSV-2 activity by qPCR in infected Vero cells. Conditions: for minimal effective concentration: Human alphaherpesvirus 2, Vero, 24 h, read-out: lowest concentration with (significant) antiviral activity against HSV-2, Vero cells infected with HSV-2, MOI 0.01, qPCR after 24 h; for antiviral activity at x-fold lower concentration than acyclovir: compared with acyclovir. For orientation: Real-time PCR tracks product formation cycle by cycle.

The subject of data set [8] is selected pathogenic yeasts. Nature of the data set: Antifungal disk-diffusion screening, overall statement on all evaluated strains. The following applies: 200 µM and 10 mM on disk. On the technique in general: A growth-free zone around the sample is the usual read-out of agar diffusion tests.
Experimental: (§5) Disk diffusion. The antifungal activity of the selenocompounds against selected pathogenic yeasts were screened, measuring their inhibition zones [49]. Solutions of the selenocompounds were set at two concentrations: 200 µM (from a 10 mM stock solution) and 10 mM. The sterile filter paper discs (diameter (D) 6 mm) impregnated with the solutions (10 µL of solutions) were placed on Saboraud Dextrose Agar (SDA), inoculated with the respective suspensions of yeasts (inocula of 0.5 McFarland’s standard). The solvent (DMSO) served as negative control, and an additional plate was inoculated without disks, to serve as growth control. The inocula were used within 15 min of preparation, the disks were applied within 15 min of inoculating the plates, and incubation started within 15 min of application of the disks (according to EUCAST standards). The plates were then incubated for 72 h, under aerobic conditions, at 37 °C. Inhibition zone diameters generated by the tested compounds (including the diameter of the disc) were measured. All experiments were performed in triplicate.
Data set [9] relates to Candida albicans ATCC 10231. Nature of the data set: Antifungal broth microdilution MIC. In kind it is cell-based. Conditions: ATCC10231, read-out: Minimal inhibitory concentration. On the procedure: (§3) This MIC values were calculated by using the broth microdilution method (Table 3).
(§4) Broth microdilution method. […] Determination of the MIC values was performed by using the broth microdilution method, according to EUCAST standards.

For data set [10], the system named is Candida krusei ATCC 14243. Nature of the data set: Antifungal broth microdilution MIC. In kind it is cell-based. The following applies: Pichia kudriavzevii, ATCC14243, read-out: Minimal inhibitory concentration. On the procedure: as §3, §4
The subject of data set [11] is Candida parapsilosis ATCC 22019. Nature of the data set: Antifungal broth microdilution MIC. The following applies: Lodderomyces parapsilosis, ATCC22019, read-out: Minimal inhibitory concentration. Type of data set: cell-based. The method, then:
as §3, §4

Data set [12] deals with Cryptococcus diffluens ATCC 32059. Nature of the data set: Antifungal broth microdilution MIC. In kind it is cell-based. The following applies: Naganishia diffluens, ATCC32059, read-out: Minimal inhibitory concentration. On the procedure:
as §3, §4

Data set [13] deals with Candida albicans ATCC 10231. Nature of the data set: Antifungal disk-diffusion. The following applies: ATCC10231, 72 h, read-out: Inhibition Zone Diameter.
Experimental: as §5
The subject of data set [14] is Candida tropicalis ATCC 13803. Nature of the data set: Antifungal disk-diffusion. Conditions: ATCC13803, 72 h, read-out: Inhibition Zone Diameter.
Experimental: as §5
Data set [15] relates to Candida krusei ATCC 14243. Nature of the data set: Antifungal disk-diffusion. The following applies: Pichia kudriavzevii, ATCC14243, 72 h; for zone of inhibition at 200 µM: read-out: Inhibition Zone Diameter, 200 µM on disk, 72 h; for zone of inhibition at 10000 µM: read-out: Inhibition Zone Diameter, 10 mM on disk, 72 h.
Experimental: as §5
The test system of data set [16] is Candida glabrata ATCC 36909. Nature of the data set: Antifungal disk-diffusion. The following applies: Nakaseomyces glabratus, ATCC36909, 72 h; for zone of inhibition at 200 µM: read-out: Inhibition Zone Diameter, 200 µM on disk, 72 h; for zone of inhibition at 10000 µM: read-out: Inhibition Zone Diameter, 10 mM on disk, 72 h.
Experimental: as §5
Data set [17] concerns Candida parapsilosis ATCC 22019. Nature of the data set: Antifungal disk-diffusion. Conditions: Lodderomyces parapsilosis, ATCC22019, 72 h, read-out: Inhibition Zone Diameter.
Experimental: as §5
In data set [18] the test system is Cryptococcus diffluens ATCC 32059. Nature of the data set: Antifungal disk-diffusion. The following applies: Naganishia diffluens, ATCC32059, 72 h, read-out: Inhibition Zone Diameter.
Experimental: as §5

As usually defined, the inhibition is the share of the control response that was lost under treatment. For orientation: IC50 means the concentration at which inhibition is half-maximal.

Values after ≈ are worked out from the molar mass of the structure shown. Bounds are passed on as bounds.

Turning to `CC[C@H](C)C[C@H](C)CCCCCCCCC(=O)N[C@H]1C[C@@H](O)[C@@H](NCCN)NC(=O)[C@@H]2[C@@H](O)CCN2C(=O)[C@H]([C@H](O)CCN)NC(=O)[C@H]([C@H](O)[C@@H](O)c2ccc(O)cc2)NC(=O)[C@@H]2C[C@@H](O)CN2C(=O)[C@H]([C@@H](C)O)NC1=O` [CSP, caspofungin], the figures for the Minimal inhibitory concentration in data set [1], in data set [2] and in [3] were no more than 0.007 to 0.110 µM, 0.055 to 0.229 µM and 0.110 to 1.83 µM, respectively.

In turn, `COC(=O)C[Se]C(=O)c1ccc(Cl)cc1` [Compound 7] showed an inhibition at 50 µM with S. aureus ATCC 25923 [4] greater than 70%. In the data set on S. aureus ATCC 25923 [5], the “effect on the antibiofilm activity of CIP” value is on record as “significantly increased the activity of CIP”. For the same compound, in data set [6], the “effect on the antibiofilm activity of TET compared to TET alone” value is “significantly reduced the activity of the antibiotic”. The compound also had a 50% inhibitory concentration (IC50) at 24 h in data set [7] greater than 100 µM. In the data set on HSV-2, the minimal effective concentration was determined as 12.5 µM and the “antiviral activity at concentration x-fold lower than the cytotoxic concentration (IC50 in Vero cells)” value worked out at 8 fold. In addition, the “concentration at which replication of HSV-2 was completely inhibited” value with HSV-2 (Vero cells infected with HSV-2, qPCR) came to 50 µM. For the same compound, the “antifungal activity in the disk-diffusion assay (in words)” value in [8] is reported as “did not show antifungal activity”.

For the compound `O=C1[Se]C(=O)c2ccccc21` [Compound 1], the MIC in [9] is 50 µM (≈ 10.6 µg/mL); in data set [10], 100 µM (≈ 21.1 µg/mL); in data set [11] it was greater than 200 µM; in [12], greater than 200 µM. In the data set with S. aureus ATCC 25923 [4], this compound came in with an inhibition at 50 µM greater than 70%. Further, the zone of inhibition at 200 µM was 14 mm in data set [13], 3 mm in data set [14], 11 mm in data set [15] and 2 mm in data set [16]. In addition, the zone of inhibition at 10000 µM was greater than 30 mm in data set [13]; greater than 30 mm in data set [14]; greater than 30 mm in [15]; 13 mm in data set [16]; 6 mm in [17]. This compound also came in with a half-maximal inhibitory concentration (IC50) at 24 h in [7] greater than 100 µM. Further, the minimal effective concentration in the data set on HSV-2 came to 12.5 µM. Also, in the data set on HSV-2, the “antiviral activity at concentration x-fold lower than the cytotoxic concentration (IC50 in Vero cells)” value worked out at 8 fold.

Regarding `CC(C)(C)C(=O)C[Se]C(=O)c1ccc(Cl)cc1` [Compound 10], the MIC in data set [9] is greater than 200 µM; in data set [10], 50 µM (≈ 15.9 µg/mL); in [11], greater than 200 µM; in data set [12], greater than 200 µM. The same compound came in with an inhibition at 10 µM with S. aureus ATCC 25923 [4] (compound at 10 μM) greater than 70%. Moreover, the zone of inhibition at 10000 µM was greater than 30 mm in data set [13]; 16 mm in [14]; greater than 30 mm in [15]; 25 mm in data set [16]; greater than 30 mm in data set [17]. Besides, the zone of inhibition at 200 µM worked out at 14 mm in data set [15] and 2 mm in data set [17]. This compound had an IC50 at 24 h in [7] of 45 µM. For the same compound, the minimal effective concentration in the data set with HSV-2 turned out to be 5 µM. Moreover, the “antiviral activity at concentration x-fold lower than the cytotoxic concentration (IC50 in Vero cells)” value in the data set on HSV-2 was determined as 9 fold. In the data set with HSV-2, the “antiviral activity at x-fold lower concentration than acyclovir” value turned out to be 8 fold.

In the case of `COc1cc(OC)cc(C(=O)[Se]CC(=O)C(C)(C)C)c1` [Compound 11], the MIC in data set [9] was greater than 200 µM; in data set [10] it was greater than 200 µM; in [11], 100 µM (≈ 34.3 µg/mL); in data set [12] it was 100 µM (≈ 34.3 µg/mL). In the data set on S. aureus ATCC 25923 [4] (compound at 25 μM), this compound gave an inhibition at 25 µM greater than 70%. Also, the “effect on the antibiofilm activity of CIP” value with S. aureus ATCC 25923 [5] is given as “significantly increased the activity of CIP”. Moreover, the zone of inhibition at 200 µM in data set [18] was determined as 10 mm; in data set [17] it was 14 mm. The zone of inhibition at 10000 µM was 18 mm in [18]; 19 mm in [13]; 12 mm in data set [15]; 18 mm in [16]; greater than 30 mm in [17]. For the same compound, the IC50 at 24 h in [7] came to 39 µM. Also, the minimal effective concentration in the data set on HSV-2 amounted to 1.25 µM. Besides, the “antiviral activity at concentration x-fold lower than the cytotoxic concentration (IC50 in Vero cells)” value in the data set on HSV-2 is recorded as 31 fold. Besides, the “antiviral activity at x-fold lower concentration than acyclovir” value in the data set on HSV-2 amounted to 4 fold.

`CC(=O)C[Se]C(=O)c1ccc(Cl)cc1` [Compound 9]: the MIC in [9] was greater than 200 µM; in data set [10], 50 µM (≈ 13.8 µg/mL); in [11], greater than 200 µM; in data set [12] it was 100 µM (≈ 27.6 µg/mL). Moreover, the “antibiofilm effect in the presence of TET” value in [6] (1.25 µM of TET) was “significantly higher antibiofilm effects”. Further, the “effect on the antibiofilm activity of TET compared to TET alone” value in data set [6] was “significantly reduced the activity of the antibiotic”. The zone of inhibition at 200 µM came out at 12 mm in [18]; 2 mm in data set [14]; 19 mm in [15]; 6 mm in [16]; 4 mm in data set [17]. Besides, the zone of inhibition at 10000 µM was 29 mm in data set [18]; greater than 30 mm in data set [13]; 25 mm in [14]; greater than 30 mm in data set [15]; greater than 30 mm in data set [16]; greater than 30 mm in data set [17]. The compound also came in with an IC50 at 24 h in data set [7] of 31 µM.
